Assay results reported in patent US9890147B2 (BAYER PHARMA AKTIENGESELLSCHAFT, priority 2012, dated 2018).

How the values were obtained:
MOLM-13 cells = assay: Cell proliferation assay (alamarBlue), MOLM-13; format: cell-based; conditions: Homo sapiens, 96 hours incubation, inhibition of cell proliferation
How it was run: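 IC50 = concentration giving 50% growth inhibition relative to buffer-treated cells, after subtracting baseline fluorescence taken before dosing. Compound applied at 1E-5 to 1E-8 M for 96 h at 37 °C in RPMI1640 with 10% FCS; alamarBlue signal at 530/590 nm.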

BRD4 (BD1) = molecular target: T1, BRD4 (BD1) (Homo sapiens, UniProt O60885); assay: Binding assay BRD4/acetylated peptide H4 (TR-FRET protein-protein interaction assay)
T1 construct: with relatively long constructs also being possible, preferably amino acids 44-168; made in house; host or cells: E. coli
How it was run: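 Displacement of biotin-Ac-H4 peptide from His6-tagged BRD4(BD1), final usually 10 nM, read as Eu-streptavidin to anti-His-XL665 TR-FRET (665/620 nm). Compounds tested at 11 doses up to 20 μM in duplicate, pH 7.5 HEPES, 22 °C then 4 °C incubation; IC50 by 4-parameter regression.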

Row | Structure (SMILES) | IC50 (MOLM-13 cells) [µM] | IC50 (BRD4 (BD1)) [µM]
1 | CNC(=O)N1N=C(c2ccc(-c3cccc(C(=O)NCCN(C)C)c3)cc2)c2cc(OC)c(OC)cc2CC1C (racemic) [Example 113, (±)-1-(3′-{[2-(dimethylamino)ethyl]carbamoyl}biphenyl-4-yl)-7,8-dimethoxy-N,4-dimethyl-4,5-dihydro-3H-2,3-benzodiazepine-3-carboxamide] | 1.42 | 0.04
2 | CNC(=O)N1N=C(c2ccc(-c3cccc(S(N)(=O)=O)c3)cc2)c2cc(OC)c(OC)cc2CC1C (racemic) [Example 114, (±)-7,8-dimethoxy-N,4-dimethyl-1-(3′-sulphamoylbiphenyl-4-yl)-4,5-dihydro-3H-2,3-benzodiazepine-3-carboxamide] | 0.3 | 0.04
3 | CNC(=O)N1N=C(c2ccc(-c3ccc(S(=O)(=O)NC)cc3)cc2)c2cc(OC)c(OC)cc2CC1C (racemic) [Example 115, (±)-7,8-dimethoxy-N,4-dimethyl-1-[4′-(methylsulphamoyl)biphenyl-4-yl]-4,5-dihydro-3H-2,3-benzodiazepine-3-carboxamide] | 0.46 | 0.05
4 | CNC(=O)N1N=C(c2ccc(-c3cccn3C)cc2)c2cc(OC)c(OC)cc2CC1C (racemic) [Example 116, (±)-7,8-dimethoxy-N,4-dimethyl-1-[4-(1-methyl-1H-pyrrol-2-yl)phenyl]-4,5-dihydro-3H-2,3-benzodiazepine-3-carboxamide] | 0.49 | 0.07
5 | CNC(=O)N1N=C(c2ccc(-c3ccc(C)nc3)cc2)c2cc(OC)c(OC)cc2CC1C (racemic) [Example 117, (±)-7,8-dimethoxy-N,4-dimethyl-1-[4-(6-methylpyridin-3-yl)phenyl]-4,5-dihydro-3H-2,3-benzodiazepine-3-carboxamide] | 0.38 | 0.05
6 | CNC(=O)N1N=C(c2ccc(-c3ccc(S(=O)(=O)NC4CC4)cc3)cc2)c2cc(OC)c(OC)cc2CC1C (racemic) [Example 118, (±)-1-[4′-(cyclopropylsulphamoyl)-biphenyl-4-yl]-7,8-dimethoxy-N,4-dimethyl-4,5-dihydro-3H-2,3-benzodiazepine-3-carboxamide] | 0.5 | 0.07
7 | CNC(=O)N1N=C(c2ccc(-c3cc(O)cc(F)c3)cc2)c2cc(OC)c(OC)cc2CC1C (racemic) [Example 119, (±)-1-(3′-fluoro-5′-hydroxybiphenyl-4-yl)-7,8-dimethoxy-N,4-dimethyl-4,5-diliydro-3H-2,3-benzodiazepine-3-carboxamide] | 0.41 | 0.09
8 | CNC(=O)N1N=C(c2ccc(-c3cc(C)cc(F)c3)cc2)c2cc(OC)c(OC)cc2CC1C (racemic) [Example 120, (±)-1-(3′-fluoro-5′-methylbiphenyl-4-yl)-7,8-dimethoxy-N,4-dimethyl-4,5-dihydro-3H-2,3-benzodiazepine-3-carboxamide] | 0.8 | 0.19
9 | CNC(=O)N1N=C(c2ccc(-c3cccc(S(=O)(=O)NC)c3)cc2)c2cc(OC)c(OC)cc2CC1C (racemic) [Example 121, (±)-7,8-dimethoxy-N,4-dimethyl-1-[3′-(methylsulphamoyl)biphenyl-4-yl]-4,5-dihydro-3H-2,3-benzodiazepine-3-carboxamide] | 0.27 | 0.04
10 | CNC(=O)N1N=C(c2ccc(-c3cncc(F)c3)cc2)c2cc(OC)c(OC)cc2CC1C (racemic) [Example 122, (±)-1-[4-(5-fluoropyridin-3-yl)phenyl]-7,8-dimethoxy-N,4-dimethyl-4,5-dihydro-3H-2,3-benzodiazepine-3-carboxamide] | 0.66 | 0.06
11 | CNC(=O)N1N=C(c2ccc(-c3cnccc3F)cc2)c2cc(OC)c(OC)cc2CC1C (racemic) [Example 123, (±)-1-[4-(4-fluoropyridin-3-yl)phenyl]-7,8-dimethoxy-N,4-dimethyl-4,5-dihydro-3H-2,3-benzodiazepine-3-carboxamide] | 0.63 | 0.05
12 | CNC(=O)N1N=C(c2ccc(-c3cccnc3C)cc2)c2cc(OC)c(OC)cc2CC1C (racemic) [Example 124, (±)-7,8-dimethoxy-N,4-dimethyl-1-[4-(2-methylpyridin-3-yl)phenyl]-4,5-dihydro-3H-2,3-benzodiazepine-3-carboxamide] | 1.07 | 0.09
13 | CNC(=O)N1N=C(c2ccc(-c3ccnc(OC)c3)cc2)c2cc(OC)c(OC)cc2CC1C (racemic) [Example 125, (±)-7,8-dimethoxy-1-[4-(2-methoxypyridin-4-yl)phenyl]-N,4-dimethyl-4,5-dihydro-3H-2,3-benzodiazepine-3-carboxamide] | 1.16 | 0.07
14 | CNC(=O)N1N=C(c2ccc(-c3cncc(C#N)c3)cc2)c2cc(OC)c(OC)cc2CC1C (racemic) [Example 126, (±)-1-[4-(5-cyanopyridin-3-yl)phenyl]-7,8-dimethoxy-N,4-dimethyl-4,5-dihydro-3H-2,3-benzodiazepine-3-carboxamide] | 0.74 | 0.09
15 | CNC(=O)N1N=C(c2ccc(N3CCC(O)CC3)cc2)c2cc(OC)c(OC)cc2CC1C (racemic) [Example 130, (±)-1-[4-(4-hydroxypiperidin-1-yl)phenyl]-7,8-dimethoxy-N,4-dimethyl-4,5-dihydro-3H-2,3-benzodiazepine-3-carboxamide] | 0.17 | 0.03
16 | CNC(=O)N1N=C(c2ccc(N3CCN(C(=O)C(C)(C)O)CC3)cc2)c2cc(OC)c(OC)cc2CC1C (racemic) [Example 134, (±)-1-{4-[4-(2-hydroxy-2-methylpropanoyl)-piperazin-1-yl]phenyl}-7,8-dimethoxy-N,4-dimethyl-4,5-dihydro-3H-2,3-benzodiazepine-3-carboxamide] | 0.36 | 0.05
17 | CNC(=O)N1N=C(c2ccc(N3CCNC(=O)C3)cc2)c2cc(OC)c(OC)cc2CC1C (racemic) [Example 137, (±)-7,8-dimethoxy-N,4-dimethyl-1-[4-(3-oxopiperazin-1-yl)phenyl]-4,5-dihydro-3H-2,3-benzodiazepine-3-carboxamide] | 0.49 | 0.06
18 | CNC(=O)N1N=C(c2ccc(N3CCN(C)C(=O)C3)cc2)c2cc(OC)c(OC)cc2CC1C (racemic) [Example 138, (±)-7,8-dimethoxy-N,4-dimethyl-1-[4-(4-methyl-3-oxopiperazin-1-yl)phenyl]-4,5-dihydro-3H-2,3-benzodiazepine-3-carboxamide] | 0.28 | 0.03
19 | CNC(=O)N1N=C(c2cccc(N3CCOCC3)c2)c2cc(OC)c(OC)cc2CC1C (racemic) [Example 140, (±)-7,8-dimethoxy-N,4-dimethyl-1-[3-(morpholin-4-yl)phenyl]-4,5-dihydro-3H-2,3-benzodiazepine-3-carboxamide] | 0.47 | 0.06
20 | CNC(=O)N1N=C(c2cccc(N3CC(F)(F)C3)c2)c2cc(OC)c(OC)cc2CC1C (racemic) [Example 141, (±)-1-[3-(3,3-difluoroazetidin-1-yl)phenyl]-7,8-dimethoxy-N,4-dimethyl-4,5-dihydro-3H-2,3-benzodiazepine-3-carboxamide] | 0.55 | 0.07
21 | CNC(=O)N1N=C(c2cccc(N3CCC3)c2)c2cc(OC)c(OC)cc2CC1C (racemic) [Example 142, (±)-1-[3-(azetidin-1-yl)phenyl]-7,8-dimethoxy-N,4-dimethyl-4,5-dihydro-3H-2,3-benzodiazepine-3-carboxamide] | 0.68 | 0.1
22 | CNC(=O)N1N=C(c2cccc(N3CCN(C)CC3)c2)c2cc(OC)c(OC)cc2CC1C (racemic) [Example 143, (±)-7,8-dimethoxy-N,4-dimethyl-1-[3-(4-methylpiperazin-1-yl)phenyl]-4,5-dihydro 3H-2,3-benzodiazepine-3-carboxamide] | 0.84 | 0.17
23 | CNC(=O)N1N=C(c2ccc(F)c(N3CCOCC3)c2)c2cc(OC)c(OC)cc2CC1C (racemic) [Example 144, (±)-1-[4-fluoro-3-(morpholin-4-yl)phenyl]-7,8-dimethoxy-N,4-dimethyl-4,5-dihydro-3H-2,3-benzodiazepine-3-carboxamide] | 0.96 | 0.19
24 | CNC(=O)N1N=C(c2ccc(F)c(N3CC(F)(F)C3)c2)c2cc(OC)c(OC)cc2CC1C (racemic) [Example 145, (±)-1-[3-(3,3-difluoroazetidin-1-yl)-4-fluorophenyl]-7,8-dimethoxy-N,4-dimethyl-4,5-dihydro-3H-2,3-benzodiazepine-3-carboxamide] | 0.83 | 0.11
25 | CNC(=O)N1N=C(c2ccc(F)c(N3CCC(O)CC3)c2)c2cc(OC)c(OC)cc2CC1C (racemic) [Example 146, (±)-1-[4-fluoro-3-(4-hydroxypiperidin-1-yl)phenyl]-7,8-dimethoxy-N,4-dimethyl-4,5-dihydro-3H-2,3-benzodiazepine-3-carboxamide] | 1.15 | 0.47
26 | CNC(=O)N1N=C(c2ccc(-n3nc(-c4ccccc4)cc3C(F)(F)F)cc2)c2cc(OC)c(OC)cc2CC1C (racemic) [Example 149, (±)-7,8-dimethoxy-N,4-dimethyl-1-{4-[3-phenyl-5-(trifluoromethyl)-1H-pyrazol-1-yl]phenyl}-4,5-dihydro-3H-2,3-benzodiazepine-3-carboxamide] | 3 | 1.62
27 | CNC(=O)N1N=C(c2ccc(-n3ccc(-c4ccc(F)cc4)n3)cc2)c2cc(OC)c(OC)cc2CC1C (racemic) [Example 150, (±)-1-{4-[3-(4-fluorophenyl)-1H-pyrazol-1-yl]phenyl}-7,8-dimethoxy-N,4-dimethyl-4,5-dihydro-3H-2,3-benzodiazepine-3-carboxamide] | 0.48 | 0.08
